How the values were obtained:
[1] = target: ENaC activity in δ802-ENaC expressing mouse tracheal epithelial (MTE) monolayers; assay: Ussing chamber short-circuit current, δ-ENaC MTE monolayers (induced δ802Tg/Cre); format: cell-based
[2] = target: ENaC activity in mouse tracheal epithelial (MTE) monolayers, control; assay: Ussing chamber short-circuit current, control MTE monolayers (uninduced δ802Tg); format: cell-based
[3] = tested on: ENaC activity in mouse AT2 monolayers; assay: Ussing chamber short-circuit current, mAT2 monolayers; format: cell-based; conditions: mAT2 (and MTE) monolayers, Isc, Figure 5D
Description: Mouse AT2 cell isolation and monolayer cultures. Mouse AT2 cells were isolated from both wt and Scnn1d Tg/Cre strains with C57BL/6 genetic background with a modified protocol of a previous publication, [72]. Briefly, lungs of euthanized mice were removed and incubated in dispase for 45 minutes, and then were gently teased and incubated in DMEM/F-12 + 0.01% DNase I for 10 minutes. Cells were passed through a serial of Nitex filters (100, 40, 30, and 10 microns; Corning, USA) and centrifuged at 300 × g for 10 minutes. Resuspended cells were incubated with biotin conjugated anti-CD16/32, CD45 and CD119 antibodies (BD Pharmingen, USA) and then incubated with streptavidin-coated magnetic particles. The cells were then incubated for 2 h at 37 °C in a plastic culture dish precoated with mouse IgG to remove fibroblasts. Upon passing the request for both viability (> 90%) and purity assays (> 94%) (Figures S7 & S8), mouse laminin 1 precoated transwells (Corning Costar, USA) were seeded with AT2 cells (10^6 cells/cm^2). […] Transepithelial resistance (RT) and potential difference (ET) were measured with an epithelial voltohmmeter (World Precision Instrument, USA). IEQ values were calculated as the ratio of ET / RT values. […] The transmonolayer potential was short circuited to 0 mV, and Isc level was measured with an epithelial voltage clamp (VCC-MC8, Physiologic Instruments). […]

[4] = tested on: alveolar fluid clearance in human lungs; assay: Alveolar fluid clearance in human lungs ex vivo; conditions: n=5 per group, 60 minutes after instillation
Description: Alveolar fluid clearance in human lungs ex vivo. The studies followed the guide of the […] and were approved by the Ethics Committee of the China Medical University (CMU) at Shenyang, China. All patients were given oral and written informed consent forms. Human lung tissues were obtained during pulmonary resection surgeries with lung cancer at the First Affiliated Hospital of CMU. There were no fibrous or emphysematous lesions as assessed by preoperative chest CT scanning. Human lung segments were prepared, and AFC measurements were done as described previously. Briefly, the segmental bronchus was occluded by a 10-Fr. balloon catheter immediately after removal of the lung, and occluded segments that were located furthest away from the focus of tumor were chosen. A warmed physiologic saline solution (20 ml; 37°C) containing 5% BSA with or without amiloride (1 mM) was instilled into the distal air spaces through the catheter. After instillation, the lungs were inflated with 100% oxygen at an airway pressure of 7 cm H2O. Alveolar fluid was aspirated 60 minutes after instillation. […] AFC values were calculated as follows: AFC = [(Vi - Vf)/Vi] × 100, where V is the volume of the instilled albumin solution (i) and the final alveolar fluid (f). […]

[5] = tested on: δ802- and γ-ENaC subunits; assay: Immunoblot of cleavage of tagged δ802- and γ-ENaC subunits in oocytes by serine proteases; format: biochemical, human; conditions: 10 μg/ml, 45 minutes at room temperature
Description: Figure 3 Activation of δ802-containing ENaC channels by serine proteases. (A) Activation of δ802βγ ENaC expressed in Xenopus oocytes by two-chain urokinase plasminogen activator (tc-uPA). ENaC activity was measured at the membrane potential of -100 mV at defined time points post incubation with 10 μg/ml tc-uPA. n = 9-15. mean ± s.e.m. * P<0.05 vs data at the zero minute (min). (B) Time course of stimulatory effects of plasmin on δ802βγ-ENaC activity. n=12. * P<0.05. (C) Identification of subunit responsible for plasmin activation. Fold of amiloride-sensitive current (ASI) of ENaC-associated current in the presence of plasmin over that in the absence of plasmin was computed for oocytes expressing δ802+β+γ (δβγ), δ802 alone (δ), δ802+β(δβ), and δ802+γ (δγ). n = 12-15. * P<0.05. (D) Inhibitory effects of α-13 peptide on δ802αβγ- (δαβγ) and αβγ-ENaC activity post treatment of plasmin and aprotinin. Currents (I) at -100 mV were compared in the absence of amiloride (basal, open bar), presence of α-13 peptide (α13, closed bar), and amiloride (amil, grey bar). n=5. * P<0.05 vs basal currents, & P < 0.05 vs those in the presence of α-13 peptide. (E) Fractions of α-13 sensitive currents in cells pre-treated with plasmin and aprotinin. n=8. Control, without pre-treatment. (F) Cleavage of V5-tagged δ802- and γ-ENaC subunits by serine proteases. NI, non-injected oocytes as negative controls for ENaC expression. Oocytes incubated with chymotrypsin (CT, 10 μg/ml), plasmin (PI, 10 μg/ml) for 45 minutes at room temperature. Cells treated with the same volume of saline (‑) were controls for serine proteases.

[6] = α-13 300 μM apical, MTE monolayers, n=6

## N=C(N)NC(=O)c1nc(Cl)c(N)nc1N [amiloride]
[1]; Isc, Ussing chamber, amiloride 1 - 1,000 μM, n=5, read-out: ki value (logistic function), δ-ENaC MTE monolayers (converted)
  Ki: 3040 ± 260 nM
[2]; Isc, Ussing chamber, amiloride 1 - 1,000 μM, n=5, read-out: ki value (logistic function), control MTE monolayers (converted)
  Ki: 680 nM
[3]
  apparent ki value of amiloride, controls versus δ802-expressing cells: much lesser in controls

## Ac-LRGTLPHPLQRLR-NH2 [α-13 peptide]
[4]
  fraction of total alveolar fluid clearance inhibited: Approximately half
[1]; [6]
  α-13 peptide-inhibitable fraction of Isc, δ802-ENaC cells: 52%
[2]; [6]
  α-13 peptide-inhibitable fraction of Isc, control cells: 96%

B1: plasmin: serine protease of the plasmin(ogen) signal pathway for fibrinolysis (protein, UniProt P00747 20-580; P00747 581-810, looked up)
Plasmin heavy chain A: EPLDDYVNTQGASLFSVTKKQLGAGSIEECAAKCEEDEEFTCRAFQYHSKEQQCVIMAENRKSSIIIRMRDVVLFEKKVYLSECKTGNGKNYRGTMSKTKNGITCQKWSSTSPHRPRFSPATHPSEGLEENYCRNPDNDPQGPWCYTTDPEKRYDYCDILECEEECMHCSGENYDGKISKTMSGLECQAWDSQSPHAHGYIPSKFPNKNLKKNYCRNPDRELRPWCFTTDPNKRWELCDIPRCTTPPPSSGPTYQCLKGTGENYRGNVAVTVSGHTCQHWSAQTPHTHNRTPENFPCKNLDENYCRNPDGKRAPWCHTTNSQVRWEYCKIPSCDSSPVSTEQLAPTAPPELTPVVQDCYHGDGQSYRGTSSTTTTGKKCQSWSSMTPHRHQKTPENYPNAGLTMNYCRNPDADKGPWCFTTDPSVRWEYCNLKKCSGTEASVVAPPPVVLLPDVETPSEEDCMFGNGKGYRGKRATTVTGTPCQDWAAQEPHRHSIFTPETNPRAGLEKNYCRNPDGDVGGPWCYTTNPRKLYDYCDVPQCAAPSFDCGKPQVEPKKCPGR
Plasmin light chain B: VVGGCVAHPHSWPWQVSLRTRFGMHFCGGTLISPEWVLTAAHCLEKSPRPSSYKVILGAHQEVNLEPHVQEIEVSRLFLEPTRKDIALLKLSSPAVITDKVIPACLPSPNYVVADRTECFITGWGETQGTFGAGLLKEAQLPVIENKVCNRYEFLNGRVQSTELCAGHLAGGTDSCQGDSGGPLVCFEKDKYILQGVTSWGLGCARPNKPGVYVRVSRFVTWIEGVMRNN
modifications: Plasmin
notes: serine protease of the plasmin(ogen) signal pathway for fibrinolysis
[5]
  cleavage of γ-ENaC: catalyzed
  cleavage of δ802 subunit: Neither chymotrypsin nor plasmin nor endogenous furin cleaved the δ802 subunit

Source: article PMC6857051, “Proliferative regulation of alveolar epithelial type 2 progenitor cells by human Scnn1d gene” (Theranostics, 2019)
